Assays:
[1] = tested on: PCA-induced ejaculation in anaesthetised rats; experiment: p-chloroamphetamine (PCA)-induced ejaculation in anaesthetised rat model of premature ejaculation; format: in vivo; conditions: for animals that failed to ejaculate within 30 minutes: assigned ejaculatory latency of 1800 s
Protocol: In order to study penile erection and ejaculation the method used was based on the methodology taught in Yonezawa et al (2000) Life Sciences 67, 3031-3039. For ease of reference, this methodology is described below:
Male Sprague Dawley rats, weighing 350-450 g, are used. Prior to the experiments the animals are housed in groups (2 rats per cage) under controlled 12 h light-dark cycle (lights on at 07:00), constant temperature (23±1° C.) and humidity (55±5%). They have free access to standard food pellets and water.
Rats are anesthestised with sodium pentobarbitone (50 mg/kg, i.p.) and are placed in the supine position. The penis is extruded from its sheath and gently held by a wooden applicator positioned at the base of the penis. The test compounds are administered orally and p-chloroamphetamine (PCA) (5-10 mg/kg) is administered i.p. immediately before the sheath retraction and the penile responses, including penile erection, redding and expansion of the penile body, glans erection, engorgement and slight flaring of the glans and cup, glans erection with intense flaring of the glans, are recorded in the presence of test compound or vehicle. Latencies from PCA administration to the initial penile response and ejaculation is also measured in seconds in the presence of test compound or vehicle.
Compound (XI) was dosed orally and was tested at 1, 3, 10 or 30 mg/kg po, 60 min prior to PCA administration).

rapid ejaculating rats = experiment: Copulatory behaviour in rapid ejaculating conscious rats (model of premature ejaculation); format: in vivo, rat
Protocol: For all the sexual behavour tests, the rapid ejaculating male rats were used as an animal model of premature ejaculation (classified as ejaculatory latency <300 s during baseline assessment). Rapid ejaculating rats were placed in an observation arena (50-60 cm diameter), starting 5 hours into the dark cycle and observed under red ilumination. Three to four minutes after placing the male in the arena, a receptive female (ovariectomised, oestradiol benzoate/progesterone injection 48 hour before behavioural study) was introduced into the arena and the following parameters noted: • i) ejaculatory latency (EJL; time taken from addition of receptive female into the arena to ejaculation); • ii) copulatory efficiency (CE; ejaculatory latency/the number of intromissions to ejaculation, i.e. the number of seconds between intromissions); • iii) intromission frequency (IF; the number of intromissions to ejaculation); • iv) mount frequency (MF; the number of mounts to ejaculation); • v) post ejaculatory interval (PEI; the time taken from ejaculation to the commencement of copulatory behaviour). The Compound Used in the Following Examples was as Follows:
Rodent copulatory behaviour is characterised by a series of mounts, with and without vaginal insertion (50-80% of mounts result in intromission [vaginal penetration]) and ejaculation occurs after 6 to 12 intromissions. Each intromission lasts a matter of seconds—it is not possible to quantify intromission length i.e. intravaginal latency. The effect of Compound (XI) was assessed on a number of copulatory parameters (see above). We have focused ejaculatory latency as a clinical biomarker of time taken to achieve ejaculation. The study was performed in rapid ejaculating rats as a model of premature ejaculation (rats characterised by ejaculatory latency <300 s at baseline).
Compound (XI), an alpha-2-delta ligand, increased ejaculatory latency by 58% in rapidly-ejaculating conscious rats (P<0.01); i.e. Compound (XI) (10 mg/kg, 60 min post oral dosing)-treated animals took 219 s to ejaculate compared to 139 s in vehicle treated animals (see Table 2 below).

## NC[C@]1(CC(=O)O)C[C@H]2CCC[C@H]21 [Compound (XI), (1R,5R,6S)-[6-(Aminomethyl)bicyclo[3.2.0]hept-6-yl]acetic acid]
[1]; 3 mg/kg po
  animals that failed to ejaculate within 30 minutes: 3 out of 7
[1]; 10 mg/kg po
  time taken to achieve erection: small delay
  animals that failed to ejaculate within 30 minutes: 3 out of 7
[1]; 30 mg/kg po
  time taken to achieve erection: small delay
[1]; anaesthetised rats, 1, 3, 10 or 30 mg/kg po, 60 min prior to PCA administration
  p-chloroamphetamine (PCA)-induced ejaculation: significantly delayed
[1]; anaesthetised rats, 1-30 mg/kg po
  quality of erection: not influenced
[1]; anaesthetised rats, dose-dependent, 1-30 mg/kg po, 60 min prior to PCA
  increase of ejaculatory latency: up to 250%
[1]; anaesthetised rats, doses above 3 mg/kg po, vehicle circa 300 s
  ejaculatory latency: circa 1000 s
Rapid ejaculating rats; 10 mg/kg po, mean ± sem (n = 6), P < 0.01
  ejaculatory latency: 219 ± 26 s
Rapid ejaculating rats; rapidly-ejaculating conscious rats, 10 mg/kg po
  other effects on copulatory behaviour: no other significant effects
Rapid ejaculating rats; rapidly-ejaculating conscious rats, 10 mg/kg, 60 min post oral dosing, P<0.01
  increase of ejaculatory latency: 58%
Rapid ejaculating rats; rapidly-ejaculating conscious rats, 10 mg/kg, 60 min post oral dosing, vehicle 139 s
  time to ejaculate (ejaculatory latency): 219 s

Source: patent US7432299B2, “Method of treatment for sexual dysfunction” (Pfizer Inc., priority 2002, dated 2008)
